Source: article PMC8510601, “Discovery of benzamide-hydroxypyridinone hybrids as potent multi-targeting agents for the treatment of Alzheimer's disease” (Journal of Enzyme Inhibition and Medicinal Chemistry, 2021)
Where a name gives a salt, the structure may show the parent alone. Read-outs that look alike come from different tables or passages of the source.

Experiments:
[1] = molecular target: T1, MAO-B (Homo sapiens, UniProt P27338); experiment: Human MAO-B inhibition assay; assay type: biochemical; conditions: for inhibition at 0.1 µM: read-out: Inhibitory rate ± SEM (%, 100 nM); for inhibition at 1 µM: read-out: Inhibitory rate ± SEM (%, 1 μM); for IC50: ± SEM, read-out: IC50 against MAO-B
T1 sequence (P27338 1-520): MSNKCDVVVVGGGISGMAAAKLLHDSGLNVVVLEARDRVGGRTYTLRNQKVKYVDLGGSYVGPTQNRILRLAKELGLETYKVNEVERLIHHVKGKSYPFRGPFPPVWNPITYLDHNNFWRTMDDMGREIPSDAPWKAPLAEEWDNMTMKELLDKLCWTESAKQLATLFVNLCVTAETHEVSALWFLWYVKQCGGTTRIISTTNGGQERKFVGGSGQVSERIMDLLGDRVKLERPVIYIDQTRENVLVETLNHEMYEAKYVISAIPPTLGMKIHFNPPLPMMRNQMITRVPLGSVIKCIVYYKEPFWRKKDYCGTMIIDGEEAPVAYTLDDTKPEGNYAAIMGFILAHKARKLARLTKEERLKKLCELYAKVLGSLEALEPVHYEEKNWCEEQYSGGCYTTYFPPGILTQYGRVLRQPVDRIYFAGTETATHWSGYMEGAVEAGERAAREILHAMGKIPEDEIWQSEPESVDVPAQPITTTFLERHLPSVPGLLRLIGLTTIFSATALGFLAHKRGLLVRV

[2] = pKa determination by spectrophotometric titration; conditions: pH range 2.0–10.5, 25 °C
[3] = Iron-chelating activity test: affinity constants for Fe3+ and pFe3+
[4] = DFP^d: KCl (0.1 M); cited from earlier work
[5] = DFP^d: KCl (0.1 M); cited from earlier work; remark: listed apart in the source
[6] = system: scopolamine-induced cognitive dysfunction ICR mice; experiment: Morris water maze test, scopolamine-induced cognitive dysfunction; conditions: MWM last day, test agent 15 mg/kg i.p. + scopolamine 15 mg/kg i.p., 15 days, n = 8, mean ± SEM
Procedure: The MWM test was performed at the last 5 days including two days of memory and learning training, three days of cognitive assessment. On the fifth day, a probe training trial was performed and analysed. […] However, the dosage of scopolamine was increased from 5 mg/kg to 15 mg/kg to achieve a better modelling effect.
Cognitive and memory assays in vivo
The adult female ICR mice (8-10 weeks old, weight 20-25 g) were obtained from the
Zhejiang Academy of Medical Sciences (Hangzhou, China).
agents were prepared as clear injections, consisting of 10% DMSO, 20%
(2-hydroxypropyl)-β-cyclodextrin and PBS. The mice were trained to find the platform (10 cm
diameter) in the opaque circular pool (120 cm diameter, 60 cm height) filled with water (40 cm,
depth), which was described in detail in our previous study.[1] All mice received at least one
training session daily in four quadrants for four consecutive days before testing of finding the
The mice were randomly divided into four groups: (i) control group (PBS of 20%
were intraperitoneally injected with indicated compounds or solvent 30 min before intraperitoneal
injection with scopolamine or PBS once a day for 15 consecutive days. The Morris water maze
test was performed at the last 5 days.

[7] = in vitro; conditions: PAMPA
[8] = literature value, footnote b; cited from earlier work
[9] = system: PC12 cells; experiment: Intracellular ROS detection (DCFH-DA), Aβ1–42-induced; assay type: cell-based; conditions: 8g and Aβ1–42 10 μM, flow cytometry
Procedure: Aβ deposition and peroxidation are also important clinical features of AD. Therefore, we subsequently assessed the antioxidation of compound 8g, using 2′,7′-dichlorofluorescin diacetate (DCFH-DA) to detect intracellular ROS generation on the PC12 cell line derived from neural pheochromocytoma. Based on our previous research, the concentration of 10 μM of compound 8g was chosen in this test. […]
8. Intracellular ROS detection

[10] = 0.1 M KCl aqueous solution, KCl (0.1 M)
[11] = 0.1 M KCl aqueous solution, pKa2, KCl (0.1 M)
[12] = pH 7.4, [Fe3+]total = 10^−6 M, [ligand]total = 10^−5 M, calculated from pKa and log β measured in KCl/DMSO

Molecule	inhibition at 0.1 µM ([1]; 100 nM)	inhibition at 1 µM ([1]; 1 μM)	IC50 [1]	melting point	pKa [2, 10]	pKa [2, 11]	Log β2 ([3]; KCl (0.1 M): DMSO = 3:2 (v/v))	Log β3 ([3]; KCl (0.1 M): DMSO = 3:2 (v/v))	Log β1 ([3]; KCl (0.1 M): DMSO = 9:1 (v/v))	pFe^3+ [3, 12]	other results
Cc1c(O)c(=O)ccn1CCNC(=O)c1ccc(OCc2cccc(Cl)c2)cc1 [Compound 8n]	47.7 ± 6.06%	72.4 ± 3.26%	110.9 ± 1.1 nM	236 to 238 °C	3.32	9.55	25.95	34.39	14.64	18.51	–
Cc1c(O)c(=O)ccn1CCNC(=O)c1ccc(OCc2cc(F)ccc2F)cc1 [Compound 8p]	41.4 ± 2.45%	65.1 ± 1.47%	175 ± 6.73 nM	236 to 238 °C	3.27	9.82	26.58	35.44	14.47	18.74	–
Cc1c(O)c(=O)ccn1CCNC(=O)c1ccc(OCc2ccc(C(F)(F)F)cc2)cc1 [Compound 8r]	46.5 ± 6.99%	63.4 ± 4.06%	187.7 ± 0.42 nM	268 to 270 °C	3.25	9.78	26.01	34.98	14.48	18.39	–
Cc1ccc(COc2ccc(C(=O)NCCn3ccc(=O)c(O)c3C)cc2)cc1 [Compound 8t]	45.1 ± 1.62%	64.1 ± 0.82%	118 ± 4.24 nM	245 to 247 °C	3.12	9.93	26.42	35.19	14.45	18.18	–
Cc1c(O)c(=O)ccn1CCNC(=O)c1ccc(OCc2ccc(C(C)C)cc2)cc1 [Compound 8u]	41.5 ± 1.94%	62.92 ± 0.51%	128 ± 3.96 nM	247 to 249 °C	3.33	9.58	25.58	35.36	14.67	19.35	–
Cc1c(O)c(=O)ccn1CCNC(=O)c1ccc(OCc2ccc(C(C)(C)C)cc2)cc1 [Compound 8v]	48.9 ± 1.93%	64.2 ± 1.94%	124 ± 1.32 nM	245 to 247 °C	3.29	9.56	25.51	35.20	14.69	19.25	–
Cc1c(O)c(=O)ccn1CCNC(=O)c1ccccc1O [Compound 8w]	44.38 ± 0.23%	56.43 ± 0.24%	121.5 ± 0.86 nM	156 to 158 °C	3.47	9.68	25.69	34.63	14.45	18.34	–
Cc1c(O)c(=O)ccn1CCNC(=O)c1cccc(O)c1 [Compound 8x]	43.63 ± 0.34%	55.75 ± 0.03%	121 ± 1.94 nM	144 to 146 °C	3.28	9.75	25.93	34.96	14.67	18.46	–
Cc1c(O)c(=O)ccn1CCNC(=O)c1ccc(O)cc1 [Compound 8y]	37.6 ± 1.01%	55.3 ± 1.91%	–	163 to 165 °C	3.33	9.95	26.07	35.42	14.61	18.31	–
Cc1c(O)c(=O)ccn1CCNC(=O)c1ccccn1 [Compound 11a]	34 ± 5.19%	61.48 ± 0.58%	–	219 to 221 °C	3.35	9.86	25.92	35.10	14.52	18.27	–
Cc1c(O)c(=O)ccn1CCNC(=O)c1cccnc1 [Compound 11b]	34.1 ± 1.58%	60.8 ± 1.99%	248 ± 9.56 nM	266 to 268 °C	3.09	9.79	25.68	34.75	14.40	18.13	–
Cc1c(O)c(=O)ccn1CCNC(=O)c1ccncc1 [Compound 11c]	29.1 ± 2.14%	69.7 ± 2.38%	–	280 to 282 °C	3.15	9.81	26.21	35.58	14.74	18.89	–
Cc1c(O)c(=O)ccn1C [DFP, Deferiprone, reference compound]	–	–	–	–	–	–	26.04	34.84	14.75	18.24	Log β1 [4]: 15.03; Log β2 [4]: 27.42; Log β3 [4]: 37.35; pFe^3+ [4]: 20.74; pKa1 [5]: 3.61; pKa2 [5]: 9.78; pKa ([2]; KCl (0.1 M)): 3.64; pKa2 ([2]; KCl (0.1 M)): 9.79; pFe^3+ ([3]; DFP^a: from constants measured in KCl (0.1 M)): 20.12; Log β1 ([3]; DFP^a: measured in KCl (0.1 M)): 14.86; Log β2 ([3]; DFP^a: measured in KCl (0.1 M)): 27.13; Log β3 ([3]; DFP^a: measured in KCl (0.1 M)): 36.76
C#CCN(C)Cc1ccccc1 [Pargyline, reference compound]	–	–	–	–	–	–	–	–	–	–	inhibition at 0.1 µM [1]: 50.3 ± 0.73%; inhibition at 1 µM [1]: 91.59 ± 0.09%; Distance to the target [6]: 2.89 ± 0.69 m; Entries to the target [6]: 3.85 ± 0.48
Nc1c2c(nc3ccccc13)CCCC2 [Tacrine]	–	–	–	–	–	–	–	–	–	–	Papp at 6 h, 25 μg/mL [7]: 4.12 ± 0.45 ×10⁻⁶ cm/s; Pe [8]: 5.3 ± 0.19^b 10^–6 cm/s
CN1[C@@H]2C[C@@H](OC(=O)[C@H](CO)c3ccccc3)C[C@H]1[C@@H]1O[C@@H]12 [scopolamine, Scopolamine hydrobromide]	–	–	–	–	–	–	–	–	–	–	Distance to the target [6]: 7.74 ± 1.23 m; Entries to the target [6]: 2.00 ± 0.50; Latency to the target [6]: 41.40 ± 5.87 s
Aβ1–42: Aβ peptide used to induce intracellular ROS in PC12 cells (model group) [reference compound]	–	–	–	–	–	–	–	–	–	–	ROS %Gated (percentage of positive cells in the total number of cells) [9]: 44.58%; ROS Mean (average fluorescence intensity of all cells) [9]: 131.56
